Target: T1, IC-GPCR2 (Homo sapiens, UniProt Q8TDV5)
T1 construct: expressed in transfected cells
T1 sequence (Q8TDV5 1-335 S309L): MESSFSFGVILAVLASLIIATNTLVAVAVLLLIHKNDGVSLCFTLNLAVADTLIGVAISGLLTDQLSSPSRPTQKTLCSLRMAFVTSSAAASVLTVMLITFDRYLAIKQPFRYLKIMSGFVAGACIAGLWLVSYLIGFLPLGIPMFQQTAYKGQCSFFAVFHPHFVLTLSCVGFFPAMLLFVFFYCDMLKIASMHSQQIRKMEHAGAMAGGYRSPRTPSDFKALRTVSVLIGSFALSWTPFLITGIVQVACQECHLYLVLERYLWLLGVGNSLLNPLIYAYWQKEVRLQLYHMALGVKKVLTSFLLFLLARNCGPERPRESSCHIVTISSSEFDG
Experiment: Stimulation of cAMP in CHO cell line stably expressing IC-GPCR2 (HTRF cAMP dynamic kit)
Type: cell-based
Settings: 3 μM compound; relative to maximal activity of 5-Ethyl-2-{4-[4-(4-tetrazol-1-yl-phenoxymethyl)-thiazol-2-yl]-piperidin-1-yl}-pyrimidine (=100%); IC-GPCR2 stably expressing CHO cells, 30 minutes
Procedure: This assay was developed using a stable cell line expressing IC-GPCR-2, generated as follows. IC-GPCR2 (Seq. ID No. 1) was cloned into Gateway pDEST 40vector (Invitrogen), using the Gateway cloning system (invitrogen) according to the manufacturers instructions. A stable cell line was generated by transfecting a 10 cm plate of CHO cells (source) with 8 ug of this construct using Transit-CHO transfection kit (Mirus). CHO cells were plated the day prior to transfection at a density of 3,000,000 cells/plate. Clones were selected using the antibiotic G418 at 500 ug/ml. 23 clones were picked and assayed for the expression of the receptor by measuring changes in intracellular cAMP levels in response to an IC-GPCR2 agonist (Arena 51).
To measure cAMP activity in response to IC-GPCR2 agonist, the clones were plated in 96 well plates at 17500 cells per well. On the day after plating, cells were incubated with the IC-CPCR2 agonist at […] for 30 minutes in Ham's F12 Media (Gibco) with 0.04% DMSO. cAMP was measured using the cAMP dynamic kit from C is Bio (Bedford, Mass.) according to the manufacturers instructions. Briefly, cells were lysed, and cAMP levels determined by competitive immunoassay using D2 labeled cAMP, and europium cryptate tagged anti cAMP antibody. When in close proximity, the D2 and europium cryptate undergo fluorescence resonance energy transfer (FRET), which is measured as a fluorescence ratio (665 nm/620 nm). Unlabelled cAMP in the cell lysatc competed with the D2 labeled cAMP for the europium crypate labeled antibody. The resulting decrease in FRET signal corresponded to intracellular cAMP levels. Fluorescence was read on a BMG Labtech PHERAstar, software version 1.50.
The clone with the greatest response to IC-GPCR2 agonist was selected for the screening assay.
Compounds were dissolved in 100% DMSO to a concentration of […] to provide stock solutions. To determine activity against IC-GPCR2, compounds were incubated with IC-GPCR2 stably expressing cells (described above), at 6-8 concentrations ranging from 0.00003 to 10 micromolar, in 96 well plates, in 50 ul of Hams F12 media for 30 minutes. Cells were plated at 17500 cells per well 1 day before running the assay. All compounds were also screened against the parental CHO cells. cAMP was measured using the cAMP dynamic kit from Cis Bio (Bedford, Mass.), according to the manufacturer's instructions. Briefly, cells were lysed and cAMP levels determined by competitive immunoassay using D2 labeled cAMP, and europium cryptate tagged anti cAMP antibody. When in close proximity, the D2 and europium cryptate undergo fluorescence resonance energy transfer (FRET), which is measured as a fluorescence ratio (665 nm/620 nm). Unlabelled cAMP in the cell lysate competed with the D2 labeled cAMP for the europium crypate labeled antibody. The resulting decrease in FRET signal corresponded to intracellular cAMP levels
To determine percent activity for a tested compound, the FRET signal value obtained at a particular concentration are compared to the Maximal FRET signal value obtained for 5-Ethyl-2-{4-[4-(4-tetrazol-1-yl-phenoxymethyl)-thiazol-2-yl]-piperidin-1-yl}-pyrimidine. The maximal activity of 5-Ethyl-2-{4-[4-(4-tetrazol-1-yl-phenoxymethyl)-thiazol-2-yl]-piperidin-1-yl}-pyrimidine is designated as 100% activity. Typically, the concentration of 5-Ethyl-2-{4-[4-(4-tetrazol-1-yl-phenoxymethyl)-thiazol-2-yl]-piperidin-1-yl}-pyrimidine in the assay was approximately 0.1 μM. The synthesis of 5-Ethyl-2-{4-[4-(4-tetrazol-1-yl-phenoxymethyl)-thiazol-2-yl]-piperidin-1-yl}-pyrimidine is disclosed in co-owned pending U.S. patent application Ser. No. 11/964,461, herein incorporated by reference. Activities of compounds that were tested are shown in Table 1 below and are expressed as % activity at 3 μM compound compared to the maximal activity of 5-Ethyl-2-{4-[4-(4-tetrazol-1-yl-phenoxymethyl)-thiazol-2-yl]-piperidin-1-yl}-pyrimidine at 3 μM.

SMILES | % activity at 3 μM [%]
Fc1cc(-n2cnnn2)ccc1OCc1cnn([C@H]2CCN(c3ncc(Cl)cn3)C[C@@H]2F)n1 (racemic) [Example 33, 5-Chloro-2-((trans)-3-fluoro-4-(4-((2-fluoro-4-(1H-tetrazol-1-yl)phenoxy)methyl)-2H-1,2,3-triazol-2-yl)piperidin-1-yl)pyrimidine] | 88.32
Fc1cc(-n2cnnn2)ccc1OCc1cnn([C@H]2CCN(c3ncc(C(F)(F)F)cn3)C[C@@H]2F)n1 (racemic) [Example 34, 2-((trans)-3-Fluoro-4-(4-((2-fluoro-4-(1H-tetrazol-1-yl)phenoxy)methyl)-2H-1,2,3-triazol-2-yl)piperidin-1-yl)-5-(trifluoromethyl)pyrimidine] | 87.61
CCc1cnc(N2CC[C@H](n3ncc(COc4ccc(-n5cnnn5)cc4F)n3)[C@@H](F)C2)nc1 (racemic) [Example 38, 5-Ethyl-2-((trans)-3-fluoro-4-(4-((2-fluoro-4-(1H-tetrazol-1-yl)phenoxy)methyl)-2H-1,2,3-triazol-2-yl)piperidin-1-yl)pyrimidine] | 85.32
CC(C)(C)OC(=O)N1CC[C@@H](n2ncc(COc3ccc(-n4cnnn4)cc3F)n2)[C@H](F)C1 (relative stereo) [Example 49, (trans)-tert-Butyl 3-fluoro-4-(4-((2-fluoro-4-(1H-tetrazol-1-yl)phenoxy)methyl)-2H-1,2,3-triazol-2-yl)piperidine-1-carboxylate] | 78.48
COC(=O)[C@H]1C[C@H](n2ncc(COc3ccc(-n4cnnn4)nc3)n2)CCN1C(=O)OC(C)(C)C (relative stereo) [Example 59] | 33.25
CC(C)(C)OC(=O)N1CCC(n2cnc(COc3ccc(S(C)(=O)=O)cc3F)n2)CC1 [Example 1, 4-[3-(2-Fluoro-4-methanesulfonyl-phenoxymethyl)-[1,2,4]triazol-1-yl]-piperidine-1-carboxylic acid tert-butyl ester] | 64.46
CC(C)(C)OC(=O)N1CCC(n2ncc(COc3ccc(-n4cnnn4)cc3)n2)CC1 [Example 3, 4-[4-(4-Tetrazol-1-yl-phenoxymethyl)-[1,2,3]triazol-2-yl]-piperidine-1-carboxylic acid tert-butyl ester] | 79.02
CC(C)(C)OC(=O)N1CCC(n2ncc(COc3ccc(S(C)(=O)=O)cc3F)n2)CC1 [Example 4, 4-[4-(2-Fluoro-4-methanesulfonyl-phenoxymethyl)-[1,2,3]triazol-2-yl]-piperidine-1-carboxylic acid tert-butyl ester] | 79.18
CC(C)(C)OC(=O)N1CCC(n2nnc(COc3ccc(S(C)(=O)=O)cc3F)n2)CC1 [Example 5, 4-[5-(2-Fluoro-4-methanesulfonyl-phenoxymethyl)-tetrazol-2-yl]-piperidine-1-carboxylic acid tert-butyl ester] | 75.78
CC(C)(C)OC(=O)N1CCC(n2ccc(COc3ccc(-n4cnnn4)cc3F)n2)CC1 [Example 6, 4-[3-(2-Fluoro-4-tetrazol-1-yl-phenoxymethyl)-pyrazol-1-yl]-piperidine-1-carboxylic acid tert-butyl ester] | 79.51
CC(C)(C)OC(=O)N1CCC(n2cc(COc3ccc(-n4cnnn4)cc3F)cn2)CC1 [Example 7, 4-[4-(2-Fluoro-4-tetrazol-1-yl-phenoxymethyl)-pyrazol-1-yl]-piperidine-1-carboxylic acid tert-butyl ester] | 78.16
CC(C)(C)OC(=O)N1CCC(n2cc(COc3ccc(-n4cnnn4)cc3)cn2)CC1 [Example 8, 4-[4-(4-Tetrazol-1-yl-phenoxymethyl)-pyrazol-1-yl]-piperidine-1-carboxylic acid tert-butyl ester] | 77.16
CCc1cnc(N2CCC(n3cnc(COc4ccc(S(C)(=O)=O)cc4F)n3)CC2)nc1 [Example 9, 5-Ethyl-2-{4-[3-(2-fluoro-4-methanesulfonyl-phenoxymethyl)-[1,2,4]triazol-1-yl]-piperidin-1-yl}-pyrimidine] | 65.75
CCc1cnc(N2CCC(n3ncc(COc4ccc(S(C)(=O)=O)cc4F)n3)CC2)nc1 [Example 10, 5-Ethyl-2-{4-[4-(2-fluoro-4-methanesulfonyl-phenoxymethyl)-[1,2,3]triazol-2-yl]-piperidin-1-yl}-pyrimidine] | 71.04
CS(=O)(=O)c1ccc(OCc2cnn(C3CCN(c4ncc(Cl)cn4)CC3)n2)c(F)c1 [Example 13, 5-Chloro-2-{4-[4-(2-fluoro-4-methanesulfonyl-phenoxymethyl)-[1,2,3]triazol-2-yl]-piperidin-1-yl}-pyrimidine] | 61.30
CS(=O)(=O)c1ccc(OCc2cnn(C3CCN(c4ncc(C(F)(F)F)cn4)CC3)n2)c(F)c1 [Example 14, 2-{4-[4-(2-Fluoro-4-methanesulfonyl-phenoxymethyl)-[1,2,3]triazol-2-yl]-piperidin-1-yl}-5-trifluoromethyl-pyrimidine] | 74.80
Fc1cc(-n2cnnn2)ccc1OCc1cnn(C2CCN(c3ncc(C(F)(F)F)cn3)CC2)n1 [Example 15, 2-{4-[4-(2-Fluoro-4-tetrazol-1-yl-phenoxymethyl)-[1,2,3]triazol-2-yl]-piperidin-1-yl}-5-trifluoromethyl-pyrimidine] | 75.63
Fc1cc(-n2cnnn2)ccc1OCc1cnn(C2CCN(c3ncc(Cl)cn3)CC2)n1 [Example 16, 5-Chloro-2-{4-[4-(2-fluoro-4-tetrazol-1-yl-phenoxymethyl)-[1,2,3]triazol-2-yl]-piperidin-1-yl}-pyrimidine] | 70.31
CS(=O)(=O)c1ccc(OCc2nnn(C3CCN(c4ncc(Cl)cn4)CC3)n2)c(F)c1 [Example 17, 5-Chloro-2-{4-[5-(2-fluoro-4-methanesulfonyl-phenoxymethyl)-tetrazol-2-yl]-piperidin-1-yl}-pyrimidine] | 68.23
CCc1cnc(N2CCC(n3cc(COc4ccc(-n5cnnn5)cc4)cn3)CC2)nc1 [Example 18, 2-(4-(4-((4-(1H-tetrazol-1-yl)phenoxy)methyl)-1H-pyrazol-1-yl)piperidin-1-yl)-5-ethylpyrimidine] | 77.67
CCc1cnc(N2CCC(n3cc(COc4ccc(-n5cnnn5)cc4F)cn3)CC2)nc1 [Example 19, 5-Ethyl-2-(4-(4-((2-fluoro-4-(1H-tetrazol-1-yl)phenoxy)methyl)-1H-pyrazol-1-yl)piperidin-1-yl)pyrimidine] | 80.10

— US8846675B2, “N-linked heterocyclic receptor agonists for the treatment of diabetes and metabolic disorders” (Cymabay Therapeutics, Inc., priority 2007, dated 2014)
